Reference: patent US20230263758A1, “COMPOSITIONS OF EDTA HAVING ACTIVITY AGAINST PLANKTONIC AND BIOFILM CELLS OF CLINICALLY RELEVANT PATHOGENS” (SterileCare Inc., priority 2022, published 2023)
Where a name gives a salt, the structure may show the parent alone.

What was measured:
S. epidermidis SK9 [1] = assay: Checkerboard titration, FICI; format: cell-based, Staphylococcus epidermidis
Experimental: (§1) A fourth composition and solution included tetrasodium EDTA with ethanol or chlorhexidine HCl. This fourth composition and solution were created using checkerboard titration methods using micro broth dilution in 96-well microtiter plates. The concentrations of antimicrobials used were based on previously determined MIC values. Briefly, 200 μL of two-fold dilutions of tetrasodium EDTA and ethanol or chlorhexidine HCl were prepared in MH or MH II broth with standardized cell suspension. […] Microtiter plates were incubated at 37° C. for 24 h, and the results were analyzed. Each test was performed in duplicate and included a growth control without adding any antimicrobials.

MRSA ON184 = assay: Checkerboard titration, FICI; format: cell-based, Staphylococcus aureus
Experimental: as §1

Candida albicans SK4b [2] = assay: Checkerboard titration, FICI; format: cell-based; details: C. albicans SK4b
Experimental: as §1

Escherichia coli ON29 [3] = assay: Checkerboard titration, FICI; format: cell-based; details: E. coli ON29
Experimental: as §1

Proteus mirabilis ON153 [4] = assay: Checkerboard titration, FICI; format: cell-based; details: P. mirabilis ON153
Experimental: as §1

[5] = test system: Pseudomonas aeruginosa SK1; assay: Checkerboard titration, FICI; format: cell-based; details: P. aeruginosa SK1
Experimental: as §1

Serratia marcescens SK2 [6] = assay: Checkerboard titration, FICI; format: cell-based; details: S. marcescens SK2
Experimental: as §1

[7] = test system: Staphylococcus aureus ON89; assay: Checkerboard titration, FICI; format: cell-based; details: S. aureus ON89
Experimental: as §1

[8] = test system: Staphylococcus epidermidis ON170; assay: Checkerboard titration, FICI; format: cell-based; details: S. epidermidis ON170
Experimental: as §1

[9] = test system: Stenotrophomonas maltophilia ON17; assay: Checkerboard titration, FICI; format: cell-based; details: S. maltophilia ON17
Experimental: as §1

E. coli SK2 [10] = assay: Checkerboard titration, FICI; format: cell-based, Escherichia coli
Experimental: as §1

S. epidermidis SK9 [11] = assay: Checkerboard, FMCI; format: cell-based, Staphylococcus epidermidis; details: EDTA + chlorhexidine HCl
Experimental: (§2) An assay was made using a minimum inhibitory concentration (MIC) and minimum bactericidal concentration (MBC) and minimum fungicidal concentration (MFC) determination. The MIC was determined by the micro broth dilution method in 96-well plates. Serial two-fold dilutions of tetrasodium EDTA (from 2% to 0.015%), ethanol (from 50% to 0.1%) and chlorhexidine HCl (from 100 μg/mL to 0.025 μg/mL) were prepared in MH broth with a final volume of 90 μL per well. A 10 μL containing 1×10^5 bacterial cells or 2×10^3 fungal cells were added to each well. The inoculated plates were covered with a lid, sealed with Parafilm, and incubated for 24 h at 37° C. with slight rocking on a tilting platform shaker. After incubation, the optical density at 600 nm (OD 600) of the cultures in each well was measured using an xMark™ Microplate Absorbance Spectrophotometer (Bio-Rad). […] MBCs and MFCs were determined by transferring 100 μL from each well with no apparent growth onto appropriate agar plates, followed by incubation for 24 h at 37° C.
(§3) A fourth composition and solution included tetrasodium EDTA with ethanol or chlorhexidine HCl. […] The concentrations of antimicrobials used were based on previously determined MIC values. […] Microtiter plates were incubated at 37° C. for 24 h, and the results were analyzed. […]

Candida albicans SK4b [12] = assay: Checkerboard, FMCI; format: cell-based; details: C. albicans SK4b
Experimental: as §2, §1

Escherichia coli ON29 [13] = assay: Checkerboard, FMCI; format: cell-based; details: E. coli ON29
Experimental: as §2, §1

Proteus mirabilis ON153 [14] = assay: Checkerboard, FMCI; format: cell-based; details: P. mirabilis ON153
Experimental: as §2, §1

[15] = test system: Pseudomonas aeruginosa SK1; assay: Checkerboard, FMCI; format: cell-based; details: P. aeruginosa SK1
Experimental: as §2, §1

Serratia marcescens SK2 [16] = assay: Checkerboard, FMCI; format: cell-based; details: S. marcescens SK2
Experimental: as §2, §1

[17] = test system: Staphylococcus aureus ON89; assay: Checkerboard, FMCI; format: cell-based; details: S. aureus ON89
Experimental: as §2, §1

[18] = test system: Staphylococcus epidermidis ON170; assay: Checkerboard, FMCI; format: cell-based; details: S. epidermidis ON170
Experimental: as §2, §1

[19] = test system: Stenotrophomonas maltophilia ON17; assay: Checkerboard, FMCI; format: cell-based; details: S. maltophilia ON17; EDTA + chlorhexidine HCl
Experimental: as §2, §1

E. coli SK2 [20] = assay: Checkerboard, FMCI; format: cell-based, Escherichia coli; details: EDTA + chlorhexidine HCl
Experimental: as §2, §3

C. albicans ON47 = assay: Checkerboard, FMCI; format: cell-based, Candida albicans; details: EDTA + chlorhexidine HCl
Experimental: as §2, §3

[21] = test system: Staphylococcus epidermidis SK9; assay: Checkerboard FBEC index, 48-h biofilm; format: cell-based; details: S. epidermidis SK9 biofilm
Experimental: (§4) In step (4), microtiter plates are incubated at 37° C. for 24 h. then (6), after incubation, the bacterial and fungal cells were dislodged from the pegs into the recovery medium described above.
(§5) Three 10-μL aliquots, for a total of 30 μL from each well of recovery medium, were spotted on MH agar plates and incubated for 24 h at 37° C. […] The FBEC determination is a modification of the FICI.

[22] = test system: Pseudomonas aeruginosa SK1; assay: Checkerboard FBEC index, 48-h biofilm; format: cell-based; details: P. aeruginosa SK1 biofilm; EDTA + chlorhexidine HCl
Experimental: as §4, §5

Escherichia coli SK2 = assay: Checkerboard FBEC index, 48-h biofilm; format: cell-based; details: E. coli SK2 biofilm; EDTA + chlorhexidine HCl
Experimental: as §4, §5

[23] = EDTA + chlorhexidine HCl checkerboard

SMILES | Inhibitory concentration in combination (S. epidermidis SK9 [1]; [23]) | Inhibitory concentration in combination (MRSA ON184; [23]) | Inhibitory concentration in combination (Candida albicans SK4b [2]; [23]) | Inhibitory concentration in combination (Escherichia coli ON29 [3]; [23]) | Inhibitory concentration in combination (Proteus mirabilis ON153 [4]; [23]) | Inhibitory concentration in combination [5, 23] | Inhibitory concentration in combination (Serratia marcescens SK2 [6]; [23]) | Inhibitory concentration in combination [7, 23] | Inhibitory concentration in combination [8, 23] | Inhibitory concentration in combination [9, 23] | Inhibitory concentration in combination (E. coli SK2 [10]; [23]) | Microbicidal concentration in combination (S. epidermidis SK9 [11]) | Microbicidal concentration in combination (Escherichia coli ON29 [13]; EDTA + chlorhexidine HCl) | Microbicidal concentration in combination ([15]; EDTA + chlorhexidine HCl) | Microbicidal concentration in combination ([17]; EDTA + chlorhexidine HCl) | Microbicidal concentration in combination ([18]; EDTA + chlorhexidine HCl) | Microbicidal concentration in combination [19] | Microbicidal concentration in combination (E. coli SK2 [20]) | Microbicidal concentration in combination (C. albicans ON47) | Biofilm eradication concentration in combination (FBEC) [22] | other results
[H]/N=C(\N/C(=N/[H])NCCCCCCNC(=N)NC(=N)Nc1ccc(Cl)cc1)Nc1ccc(Cl)cc1 [Chlorhexidine HCl, chlorhexidine HCl, reference compound] | 0.025 µg/mL | 0.2 µg/mL | 0.8 µg/mL | 0.2 µg/mL | 0.8 µg/mL | 0.8 µg/mL | 1.5 µg/mL | 0.1 µg/mL | 0.05 µg/mL | 0.2 µg/mL | 0.1 µg/mL | 0.4 µg/mL | 0.2 µg/mL | 1.6 µg/mL | 0.2 µg/mL | 0.4 µg/mL | 0.4 µg/mL | 0.2 µg/mL | 1.6 µg/mL | 3.125 µg/mL | Microbicidal concentration in combination (Candida albicans SK4b [12]; EDTA + chlorhexidine HCl): 0.8 µg/mL; Microbicidal concentration in combination (Proteus mirabilis ON153 [14]; EDTA + chlorhexidine HCl): 1.6 µg/mL; Microbicidal concentration in combination (Serratia marcescens SK2 [16]; EDTA + chlorhexidine HCl): 1.6 µg/mL; Biofilm eradication concentration in combination (FBEC) ([21]; EDTA + chlorhexidine HCl): 3.125 µg/mL; Biofilm eradication concentration in combination (FBEC) (Escherichia coli SK2): 3.125 µg/mL
O=C([O-])CN(CCN(CC(=O)[O-])CC(=O)[O-])CC(=O)[O-].[Na+].[Na+].[Na+].[Na+] [EDTA, tetrasodium EDTA] | 0.015 % w/v | 0.008 % w/v | 0.063 % w/v | 0.008 % w/v | 0.063 % w/v | 0.5 % w/v | 0.063 % w/v | 0.008 % w/v | 0.063 % w/v | 0.015 % w/v | 0.008 % w/v | 0.008 % w/v | 0.008 % w/v | 0.031 % w/v | 0.008 % w/v | 0.25 % w/v | 0.031 % w/v | 0.015 % w/v | 0.031 % w/v | 0.25 % w/v | Inhibitory concentration in combination (S. epidermidis SK9 [1]; EDTA + ethanol checkerboard): 0.015 % w/v; Inhibitory concentration in combination (MRSA ON184; EDTA + ethanol checkerboard): 0.015 % w/v; Inhibitory concentration in combination (Candida albicans SK4b [2]; EDTA + ethanol checkerboard): 0.25 % w/v; Inhibitory concentration in combination (Escherichia coli ON29 [3]; EDTA + ethanol checkerboard): 0.25 % w/v; Inhibitory concentration in combination (Proteus mirabilis ON153 [4]; EDTA + ethanol checkerboard): 0.5 % w/v; Inhibitory concentration in combination ([5]; EDTA + ethanol checkerboard): 0.031 % w/v; Inhibitory concentration in combination (Serratia marcescens SK2 [6]; EDTA + ethanol checkerboard): 0.5 % w/v; Inhibitory concentration in combination ([7]; EDTA + ethanol checkerboard): 0.015 % w/v; Inhibitory concentration in combination ([8]; EDTA + ethanol checkerboard): 0.015 % w/v; Inhibitory concentration in combination ([9]; EDTA + ethanol checkerboard): 0.031 % w/v; Inhibitory concentration in combination (E. coli SK2 [10]; EDTA + ethanol checkerboard): 0.015 % w/v; Microbicidal concentration in combination (Candida albicans SK4b [12]; EDTA + ethanol): 0.25 % w/v; Microbicidal concentration in combination (Escherichia coli ON29 [13]; EDTA + ethanol): 0.25 % w/v; Microbicidal concentration in combination (Proteus mirabilis ON153 [14]; EDTA + ethanol): 0.063 % w/v; Microbicidal concentration in combination ([15]; EDTA + ethanol): 0.031 % w/v; Microbicidal concentration in combination (Serratia marcescens SK2 [16]; EDTA + ethanol): 0.25 % w/v; Microbicidal concentration in combination ([17]; EDTA + ethanol): 0.25 % w/v; Microbicidal concentration in combination ([18]; EDTA + ethanol): 0.031 % w/v; Biofilm eradication concentration in combination (FBEC) ([21]; EDTA + ethanol): 0.031 % w/v; Biofilm eradication concentration in combination (FBEC) (Escherichia coli SK2): 0.031 % w/v
